These results are taken from paper PMC7966211, “Cooperativity of membrane-protein and protein–protein interactions control membrane remodeling by epsin 1 and affects clathrin-mediated endocytosis” (Cellular and Molecular Life Sciences: CMLS, 2020).

Changes are numbered by the printed parent chain. In names and notes the source's numbering stands.

Series [1] deals with T1, ENTH domain of epsin1 (ENTH^WT; Rat Epsin1 WT ENTH 1–164) (Rattus norvegicus, UniProt O88339).
T1 construct: gene Epn1; ENTH domain residues 1-164, pGEX-6P-2, expressed in E. coli BL21(DE3), GST tag cleaved with PreScission protease
T1 sequence (O88339 1-164): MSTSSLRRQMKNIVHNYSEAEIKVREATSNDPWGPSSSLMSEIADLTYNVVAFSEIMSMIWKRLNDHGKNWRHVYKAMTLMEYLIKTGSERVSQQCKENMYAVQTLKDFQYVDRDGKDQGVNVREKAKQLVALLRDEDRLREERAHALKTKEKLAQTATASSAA
The experiment in a line: LUV co-sedimentation with SDS-PAGE, electron microscopy, DLS: partial restoration of oligomerization and membrane remodeling. It counts as biochemical. To be noted: 4 times molar excess of L-SOP to ENTH; PS-free PC/PE/PI(4,5)P2 (65:30:5) LUVs; effect on oligomerization, binding not measured directly.

Series [2] concerns the target T1, ENTH domain of epsin1 (ENTH^WT; Rat Epsin1 WT ENTH 1–164). The experiment in a line: reflectometric interference spectroscopy (RIfS), Langmuir adsorption isotherm. It counts as binding. The conditions noted are these: PI(4,5)P2 in supported POPC/PI(4,5)P2 (95:5) bilayer without PS; PBS pH 7.4; apparent membrane dissociation constant in protein concentration. The text has this: (§1) reflectometric interference spectroscopy (RIfS), Langmuir adsorption isotherm on ENTH domain of epsin1 (ENTH^WT; Rat Epsin1 WT ENTH 1–164)

Series [3] has as its target T2, ENTH domain of epsin1 (ENTH^WT; Rat Epsin1 WT ENTH 1–164) (Rattus norvegicus, UniProt O88339, R114A).
T2 construct: gene Epn1; ENTH domain residues 1-164, pGEX-6P-2, expressed in E. coli BL21(DE3), GST tag cleaved with PreScission protease
T2 sequence (O88339 1-164 R114A): T1 sequence (O88339 1-164) with R114A
Described as above. It counts as binding. To be noted: PI(4,5)P2 in supported POPC/PI(4,5)P2 (95:5) bilayer without PS; PBS pH 7.4; apparent membrane dissociation constant in protein concentration.
Description: as §1

Series [4] deals with the molecule itself. The experiment in a line: SDS-resistant oligomers on SDS-PAGE after liposome co-sedimentation; 20 µM protein with 2 mg/ml LUVs that contain PS (Folch + PI(4,5)P2, or PC/PE/PS/PI(4,5)P2 with 5-20% PS), 3 h 30 °C, HEPES buffer, 205,000 x g, pellet and supernatant on SDS-PAGE; self-association on membranes.
Series [5] concerns the molecule itself. Briefly: FRET or BRET; Atto488-labeled (donor) and Atto532-labeled (acceptor) ENTH domains, total 5 and 15 µM, in 2 mg/ml LUV suspension; LUVs PC/PE/PS/PI(4,5)P2 (45:30:20:5) compared with PS-free PC/PE/PI(4,5)P2 (65:30:5), on which the wild type gave reduced FRET; excitation 493 nm.

In the case of `N[C@@H](COP(=O)(O)O)C(=O)O` [L-SOP], in series [1], the “LUV co-sedimentation with SDS-PAGE, electron microscopy, DLS: partial restoratio” value is “presence of the PS headgroup was sufficient to partially restore oligomerization and membrane remodeling”.

PI(4,5)P2: the Kd in series [2] turned out to be 1000 ± 200 nM; in series [3] it was 2900 ± 800 nM.

B1: Rat Epsin1 WT ENTH 1-164 (domain or fragment, UniProt O88339 1-164, looked up)
chain: T1 sequence (O88339 1-164)
notes: Epsin 1, rat, ENTH (epsin N-terminal homology) domain, residues 1-164; Expressed from pGEX-6P-2; also called ENTH domain; ENTH^WT; source: E. coli BL21(DE3), purified (GSTrap, GST cleaved with PreScission Protease, anion exchange, SEC)
Turning to B1, the binding result in series [4] is “binds”.

B2: ENTH WT (C96A A155C), fluorescently labeled (domain or fragment, rat, UniProt O88339 1-164, looked up)
chain: T1 sequence (O88339 1-164) with C96A, A155C
modifications: Atto488 maleimide (donor population) or Atto532 maleimide (acceptor population) by cysteine modification
notes: Epsin 1, rat, ENTH domain, residues 1-164, with C96A and A155C for labeling; Two populations of the same construct, one with Atto488 and one with Atto532, were mixed for FRET; also called ENTH-Atto-488; ENTH-Atto-532; source: E. coli BL21(DE3), purified (GSTrap, GST cleaved with PreScission Protease, anion exchange, SEC), then labeled
For the molecule B2, the binding result in series [5] is “binds”.
